Test results reported in patent US20240287037A1, “CYCLOALKYL COMPOUNDS AND PHARMACEUTICAL COMPOSITIONS THAT MODULATE IKZF2” (Plexium, Inc., priority 2021, published 2024).
Read-outs that look alike come from different tables or passages of the source.

Biological target: human E3 ligase component cereblon (CRBN) (Homo sapiens (Human), UniProt Q96SW2)
Assay: Cereblon (CRBN) target engagement, NanoBRET TE Intracellular E3 Ligase Assay in transfected HEK-293T cells
Description: HEK-293T cells were harvested ca. 75% confluent with trypsin and plated (500,000 cells/well) in a 6-well tissue culture plate in 2 mL of Dulbecco's Modified Eagle Medium (DMEM)^+10% Fetal Bovine Serum (FBS) and incubated overnight at 37° C.
The NanoLue-CRBN fusion vector (Nluc-CRBN; Promega) contains the coding region of human E3 ligase component cereblon (CRBN) fused to the C-terminus of the NanoLuc luciferase coding region. A mixture of 10 ng Nluc-CRBN and 990 ng DDB1 Expression Vector (Promega) was added to 125 μL Opti-Minimum Essential Medium (Opti-MEM™; Thermo Fisher) along with 2 μL P3000 reagent (Thermo Fisher) in a 1.5 mL epppendorf tube. This solution was added to Lipofectamine 3000 transfection reagent (5 μL; Thermo Fisher) in Opti-MEM (125 μL), mixed well, and incubated for 15 minutes at room temperature. The transfection mixture was added dropwise to cells and incubated overnight at 37° C., 5% CO2. Following transfection, cells were washed once with PBS, and trypsin (250 μL) was added and incubated 30-45 see to dislodge cells. Complete media (2 mL) was added to resuspend cells to form a single cell suspension. Cells were centrifuged at 320×g for 5 min at room temperature, the supernatant was removed, and the cell pellet resuspended in Opti-MEM (3 mL; wash step repeated ×2). After final resuspension in 5 mL Opti-MEM, cells were counted and resuspended at 200,000 cells/mL in Opti-MEM.
Cereblon target engagement was monitored by Bioluminescence Resonance Energy Transfer (BRET) in transfected HEK-293T cells using the NanoBRET TE Intracellular E3 Ligase Assay (Promega). Briefly, 384-well plates (white opaque plates, Corning 3574, low binding surface) were seeded with transfected HEK-293T cells (38 μl/well). 2 μL of 10 μM CRBN tracer (diluted 1:5 in Tracer Dilution Buffer) was added to each well. Plates were centrifuged at 320×g for 1 min at room temperature. […] Plates were shaken for 2 minutes on a microplate shaker to mix compounds. Plates were centrifuged at 320×g for 1 min at room temperature, and subsequently incubated for 2 hours at 37° C.
After incubation, plates were allowed to cool to room temperature for 15 minutes. 20 μL of 3X Complete NanoBRET™ Nano-Glo® Substrate plus Inhibitor Solution (Promega, 1:166 Substrate and 1:500 dilution of Extracellular NanoLuc® Inhibitor diluted in Opti-MEM) were added to each well, Plates were incubated with shaking at room temperature for 3 minutes covered with foil. Plates were read on a CLARIOstar microplate reader (BMG LabTech), measuring at 450 nm (donor emission) and 610 nm (acceptor emission). The IC50 values were determined by regression to best fit four-parameter logistic curves using GraphPad Prism.

[1] = Table 3, 2 hours at 37° C., read-out: CRBN Binding EC50
[2] = second (untitled) table after Table 3, read-out: CRBN Binding EC50

human E3 ligase component cereblon (CRBN), sequence (Q96SW2 whole entry): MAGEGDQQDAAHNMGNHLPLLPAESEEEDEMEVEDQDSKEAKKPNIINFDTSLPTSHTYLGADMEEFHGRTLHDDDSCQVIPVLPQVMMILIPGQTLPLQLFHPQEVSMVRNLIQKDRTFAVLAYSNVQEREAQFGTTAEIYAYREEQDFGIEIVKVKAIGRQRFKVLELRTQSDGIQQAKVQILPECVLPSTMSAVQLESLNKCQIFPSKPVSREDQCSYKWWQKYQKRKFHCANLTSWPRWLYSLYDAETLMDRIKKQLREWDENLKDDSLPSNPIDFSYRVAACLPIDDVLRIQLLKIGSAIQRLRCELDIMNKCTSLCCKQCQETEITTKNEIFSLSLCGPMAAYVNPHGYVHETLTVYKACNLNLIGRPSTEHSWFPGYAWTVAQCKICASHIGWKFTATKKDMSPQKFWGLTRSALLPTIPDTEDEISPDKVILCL
human E3 ligase component cereblon (CRBN), sequence (Q16531 whole entry partner): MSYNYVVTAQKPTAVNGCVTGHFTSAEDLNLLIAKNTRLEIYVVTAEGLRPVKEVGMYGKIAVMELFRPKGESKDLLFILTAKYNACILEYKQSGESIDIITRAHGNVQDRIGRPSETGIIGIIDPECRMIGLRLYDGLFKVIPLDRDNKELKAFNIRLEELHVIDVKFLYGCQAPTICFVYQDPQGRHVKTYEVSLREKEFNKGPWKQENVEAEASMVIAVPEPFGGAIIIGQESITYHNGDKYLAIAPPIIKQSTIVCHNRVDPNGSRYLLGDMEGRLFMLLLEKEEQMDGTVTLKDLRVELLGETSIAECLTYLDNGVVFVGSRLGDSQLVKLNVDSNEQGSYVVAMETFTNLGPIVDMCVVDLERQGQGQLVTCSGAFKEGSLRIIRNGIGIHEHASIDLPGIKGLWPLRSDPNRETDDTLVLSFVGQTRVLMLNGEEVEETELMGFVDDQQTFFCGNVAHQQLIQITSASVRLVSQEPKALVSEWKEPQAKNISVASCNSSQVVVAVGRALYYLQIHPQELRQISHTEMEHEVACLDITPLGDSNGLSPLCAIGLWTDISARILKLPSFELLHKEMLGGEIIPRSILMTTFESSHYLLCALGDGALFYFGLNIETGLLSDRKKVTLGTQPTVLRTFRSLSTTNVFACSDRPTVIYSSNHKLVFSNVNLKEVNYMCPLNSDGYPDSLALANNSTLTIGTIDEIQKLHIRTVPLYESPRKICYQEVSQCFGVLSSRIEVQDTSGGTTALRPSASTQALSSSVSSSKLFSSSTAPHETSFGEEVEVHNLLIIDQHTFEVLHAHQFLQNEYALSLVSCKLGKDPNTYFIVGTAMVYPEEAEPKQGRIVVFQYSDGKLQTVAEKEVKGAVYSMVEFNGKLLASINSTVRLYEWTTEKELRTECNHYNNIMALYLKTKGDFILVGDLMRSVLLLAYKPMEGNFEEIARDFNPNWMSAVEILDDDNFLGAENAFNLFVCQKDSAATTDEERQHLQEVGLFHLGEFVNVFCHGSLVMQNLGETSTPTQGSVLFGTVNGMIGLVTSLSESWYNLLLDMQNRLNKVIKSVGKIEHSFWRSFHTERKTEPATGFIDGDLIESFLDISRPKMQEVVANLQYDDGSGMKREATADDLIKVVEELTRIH

EC50 [1] | EC50 [2] | Structure (SMILES)
2 nM | 2 nM | CC(C)OC1CCC(C2CN([C@H]3CCCC[C@@H]3Oc3ccc4c(c3)CN(C3CCC(=O)NC3=O)C4=O)C2)CC1 (stereo partly drawn) [Compound 16, 3-(5-(((1S,2S)-2-(3-((cis)-4-isopropoxycyclohexyl)azetidin-1-yl)cyclohexyl)oxy)-1-oxoisoindolin-2-yl)piperidine-2,6-dione]
22 nM | 22 nM | O=C1CCC(N2Cc3cc(O[C@H]4CCC[C@@H]4N4CC(C5CC5)C4)ccc3C2=O)C(=O)N1 (stereo partly drawn) [Compound 22, 3-(5-(((1S,2S)-2-(3-cyclopropylazetidin-1-yl)cyclopentyl)oxy)-1-oxoisoindolin-2-yl)piperidine-2,6-dione]
5 nM | 5 nM | O=C1CCC(N2Cc3cc(O[C@H]4CCC[C@@H]4N4CC(C5CCC(F)(F)CC5)C4)ccc3C2=O)C(=O)N1 (stereo partly drawn) [Compound 13, 3-(5-(((1S,2S)-2-(3-(4,4-difluorocyclohexyl)azetidin-1-yl)cyclopentyl)oxy)-1-oxoisoindolin-2-yl)piperidine-2,6-dione]
2 nM | 2 nM | O=C1CCC(N2Cc3cc(O[C@H]4CCCC[C@@H]4N4CC(C5CCC(F)(F)CC5)C4)ccc3C2=O)C(=O)N1 (stereo partly drawn) [Compound 2, 3-(5-(((1S,2S)-2-(3-(4,4-difluorocyclohexyl)azetidin-1-yl)cyclohexyl)oxy)-1-oxoisoindolin-2-yl)piperidine-2,6-dione]
16 nM | 16 nM | O=C1CCC(N2Cc3cc(O[C@H]4CCCC[C@@H]4N4CC(C5CC5)C4)c(F)cc3C2=O)C(=O)N1 (stereo partly drawn) [Compound 26, 3-(5-(((1S,2S)-2-(3-cyclopropylazetidin-1-yl)cyclohexyl)oxy)-6-fluoro-1-oxoisoindolin-2-yl)piperidine-2,6-dione]
1 nM | 1 nM | CCOC1CCC(C2CN([C@H]3CCCC[C@@H]3Oc3ccc4c(c3)CN(C3CCC(=O)NC3=O)C4=O)C2)CC1 (stereo partly drawn) [Compound 19, 3-(5-(((1S,2S)-2-(3-(4-ethoxycyclohexyl)azetidin-1-yl)cyclohexyl)oxy)-1-oxoisoindolin-2-yl)piperidine-2,6-dione]
28 nM | 28 nM | O=C1CCC(N2Cc3c(ccc(O[C@H]4CCCC[C@@H]4N4CC(C5CCC5)C4)c3F)C2=O)C(=O)N1 (stereo partly drawn) [Compound 25, 3-(5-(((1S,2S)-2-(3-cyclobutylazetidin-1-yl)cyclohexyl)oxy)-4-fluoro-1-oxoisoindolin-2-yl)piperidine-2,6-dione]
1 nM | 1 nM | CC(C)OC1CCC(C2CN([C@H]3CCCC[C@@H]3Oc3ccc4c(c3)CN(C3CCC(=O)NC3=O)C4=O)C2)CC1 (stereo partly drawn) [Compound 17, 3-(5-(((1S,2S)-2-(3-((trans)-4-isopropoxycyclohexyl)azetidin-1-yl)cyclohexyl)oxy)-1-oxoisoindolin-2-yl)piperidine-2,6-dione]
9 nM | 9 nM | O=C1CCC(N2Cc3cc(O[C@H]4CCCC[C@@H]4N4CC(C5CCC5)C4)ccc3C2=O)C(=O)N1 (stereo partly drawn) [Compound 5, 3-(5-(((1S,2S)-2-(3-cyclobutylazetidin-1-yl)cyclohexyl)oxy)-1-oxoisoindolin-2-yl)piperidine-2,6-dione]
49 nM | 49 nM | O=C1CCC(N2Cc3c(ccc(O[C@H]4CCCC[C@@H]4N4CC(C5CC5)C4)c3F)C2=O)C(=O)N1 (stereo partly drawn) [Compound 24, 3-(5-(((1S,2S)-2-(3-cyclopropylazetidin-1-yl)cyclohexyl)oxy)-4-fluoro-1-oxoisoindolin-2-yl)piperidine-2,6-dione]
12 nM | 12 nM | O=C1CCC(N2Cc3cc(O[C@H]4CCCC[C@@H]4N4CC(C5CC(F)(F)C5)C4)ccc3C2=O)C(=O)N1 (stereo partly drawn) [Compound 18, 3-(5-(((1S,2S)-2-(3-(3,3-difluorocyclobutyl)azetidin-1-yl)cyclohexyl)oxy)-1-oxoisoindolin-2-yl)piperidine-2,6-dione]
1 nM | 1 nM | O=C1CCC(N2Cc3cc(O[C@H]4CCCC[C@@H]4N4CC(C5CCC(OC(F)F)CC5)C4)ccc3C2=O)C(=O)N1 (stereo partly drawn) [Compound 21, 3-(5-(((1S,2S)-2-(3-(4-(difluoromethoxy)cyclohexyl)azetidin-1-yl)cyclohexyl)oxy)-1-oxoisoindolin-2-yl)piperidine-2,6-dione]
5 nM | 5 nM | O=C1CCC(N2Cc3cc(O[C@H]4CCCC[C@@H]4N4CC(C5CCCC5)C4)ccc3C2=O)C(=O)N1 (stereo partly drawn) [Compound 6, 3-(5-(((1S,2S)-2-(3-cyclopentylazetidin-1-yl)cyclohexyl)oxy)-1-oxoisoindolin-2-yl)piperidine-2,6-dione]
18 nM | 18 nM | O=C1CCC(N2Cc3cc(O[C@H]4CCCC[C@@H]4N4CC(C5CCC5)C4)c(F)cc3C2=O)C(=O)N1 (stereo partly drawn) [Compound 27, 3-(5-(((1S,2S)-2-(3-cyclobutylazetidin-1-yl)cyclohexyl)oxy)-6-fluoro-1-oxoisoindolin-2-yl)piperidine-2,6-dione]
4 nM | 4 nM | O=C1CCC(N2Cc3cc(O[C@H]4CCCC[C@@H]4N4CC(C5CCCC(F)(F)C5)C4)ccc3C2=O)C(=O)N1 (stereo partly drawn) [Compound 20, 3-(5-(((1S,2S)-2-(3-(3,3-difluorocyclohexyl)azetidin-1-yl)cyclohexyl)oxy)-1-oxoisoindolin-2-yl)piperidine-2,6-dione]
9 nM | 9 nM | O=C1CCC(N2Cc3cc(O[C@H]4CCCC[C@@H]4N4CC(C5CC5)C4)ccc3C2=O)C(=O)N1 (stereo partly drawn) [Compound 3, 3-(5-(((1S,2S)-2-(3-cyclopropylazetidin-1-yl)cyclohexyl)oxy)-1-oxoisoindolin-2-yl)piperidine-2,6-dione]
3 nM | 3 nM | O=C1CCC(N2Cc3cc(O[C@H]4CCCC[C@@H]4N4CC(C5CCCCC5)C4)ccc3C2=O)C(=O)N1 (stereo partly drawn) [Compound 1, 3-(5-(((1S,2S)-2-(3-cyclohexylazetidin-1-yl)cyclohexyl)oxy)-1-oxoisoindolin-2-yl)piperidine-2,6-dione]
